How the values were obtained:
[1] = molecular target: T1, recombinant human SOS1 polypeptide (amino acids 560-1049) (Homo sapiens, UniProt Q07889); assay: HTRF displacement assay: inhibition of labeled tracer binding to SOS1; details: Table A, Morrison equation for competitive binding
T1 construct: corresponding to amino acids 560-1049, expressed in E. Coli; made in house; host or cells: E. coli
T1 sequence (Q07889 560-1049): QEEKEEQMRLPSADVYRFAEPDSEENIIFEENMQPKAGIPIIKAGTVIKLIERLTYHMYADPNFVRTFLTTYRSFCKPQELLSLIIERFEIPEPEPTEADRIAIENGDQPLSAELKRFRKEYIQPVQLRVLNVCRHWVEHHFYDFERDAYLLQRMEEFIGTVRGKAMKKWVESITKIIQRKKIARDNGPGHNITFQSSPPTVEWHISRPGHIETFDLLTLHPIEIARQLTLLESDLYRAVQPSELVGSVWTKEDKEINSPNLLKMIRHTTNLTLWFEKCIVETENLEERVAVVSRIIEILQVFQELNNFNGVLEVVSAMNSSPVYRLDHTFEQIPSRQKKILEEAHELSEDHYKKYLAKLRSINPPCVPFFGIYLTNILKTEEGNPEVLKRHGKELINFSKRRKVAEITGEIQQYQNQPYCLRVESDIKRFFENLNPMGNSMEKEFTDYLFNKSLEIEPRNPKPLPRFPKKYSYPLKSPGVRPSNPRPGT

pERK in MKN1 cells = assay: pERK inhibition, In-Cell Western (LI-COR Odyssey), MKN1 cells; format: cell-based; details: Homo sapiens, MKN-1, Table B; MKN1 or H358 cells (table does not say which); 0.5-1 hour incubation; read-out: IC50 (nM), pERK inhibition
Method in brief: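 MKN1 cells were exposed for about 0.5–1 h at 37 °C to nine 3-fold dilutions starting at 10 µM. Cells were then fixed in formaldehyde, permeabilised with methanol, and immunostained for pERK and GAPDH with near-infrared secondary antibodies. GAPDH-normalised pERK signal relative to vehicle gave % inhibition, from which IC50 was fitted.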

CCN1CCC(Nc2cc3c(N[C@H](C)c4cccc(C#N)c4C)nnc(C)c3cn2)CC1 [Example 1-42, (R)-3-(1-((7-((1-ethylpiperidin-4-yl)amino)-4-methylpyrido[3,4-d]pyridazin-1-yl)amino)ethyl)-2-methylbenzonitrile]
Ki [1]: 7.37 nM
IC50 (pERK in MKN1 cells): 257 nM

CCN1CCC(N(C)c2cc3c(N[C@H](C)c4cccc(C#N)c4C)nnc(C)c3cn2)CC1 [Example 1-43, (R)-3-(1-((7-((1-ethylpiperidin-4-yl)(methyl)amino)-4-methylpyrido[3,4-d]pyridazin-1-yl)amino)ethyl)-2-methylbenzonitrile]
Ki [1]: 1.28 nM
IC50 (pERK in MKN1 cells): 42.2 nM

CCN1CCN(c2cc3c(N[C@H](C)c4cccc(C#N)c4C)nnc(C)c3cn2)CC1=O [Example 1-44, (R)-3-(1-((7-(4-ethyl-3-oxopiperazin-1-yl)-4-methylpyrido[3,4-d]pyridazin-1-yl)amino)ethyl)-2-methylbenzonitrile]
Ki [1]: 1.9 nM
IC50 (pERK in MKN1 cells): 44.6 nM

Cc1c(C#N)cccc1[C@@H](C)Nc1nnc(C)c2cnc(N3CC[C@H](O)C3)cc12 [Example 1-46, 3-((R)-1-((7-((S)-3-hydroxypyrrolidin-1-yl)-4-methylpyrido[3,4-d]pyridazin-1-yl)amino)ethyl)-2-methylbenzonitrile]
Ki [1]: 1.95 nM
IC50 (pERK in MKN1 cells): 71.3 nM

Cc1c(C#N)cccc1[C@@H](C)Nc1nnc(C)c2cnc(N3CC[C@@H](O)C3)cc12 [Example 1-47, 3-((R)-1-((7-((R)-3-hydroxypyrrolidin-1-yl)-4-methylpyrido[3,4-d]pyridazin-1-yl)amino)ethyl)-2-methylbenzonitrile]
Ki [1]: 1.33 nM
IC50 (pERK in MKN1 cells): 50.3 nM

CO[C@H]1CCN(c2cc3c(N[C@H](C)c4cccc(C#N)c4C)nnc(C)c3cn2)C1 [Example 1-48, 3-((R)-1-((7-((S)-3-methoxypyrrolidin-1-yl)-4-methylpyrido[3,4-d]pyridazin-1-yl)amino)ethyl)-2-methylbenzonitrile]
Ki [1]: 2.02 nM
IC50 (pERK in MKN1 cells): 39.2 nM

CO[C@@H]1CCN(c2cc3c(N[C@H](C)c4cccc(C#N)c4C)nnc(C)c3cn2)C1 [Example 1-49, 3-((R)-1-((7-((R)-3-methoxypyrrolidin-1-yl)-4-methylpyrido[3,4-d]pyridazin-1-yl)amino)ethyl)-2-methylbenzonitrile]
Ki [1]: 2.01 nM
IC50 (pERK in MKN1 cells): 36 nM

Cc1c(C#N)cccc1[C@@H](C)Nc1nnc(C)c2cnc(N3CC[C@H](NS(C)(=O)=O)C3)cc12 [Example 1-50, N-((S)-1-(1-(((R)-1-(3-cyano-2-methylphenyl)ethyl)amino)-4-methylpyrido[3,4-d]pyridazin-7-yl)pyrrolidin-3-yl)methanesulfonamide]
Ki [1]: 2.07 nM
IC50 (pERK in MKN1 cells): 602 nM

Cc1c(C#N)cccc1[C@@H](C)Nc1nnc(C)c2cnc(N(C)[C@H]3CCNC3)cc12 [Example 1-51, 2-methyl-3-((R)-1-((4-methyl-7-(methyl((S)-pyrrolidin-3-yl)amino)pyrido[3,4-d]pyridazin-1-yl)amino)ethyl)benzonitrile]
Ki [1]: 0.867 nM
IC50 (pERK in MKN1 cells): 275 nM

Cc1c(C#N)cccc1[C@@H](C)Nc1nnc(C)c2cnc(N(C)[C@@H]3CCNC3)cc12 [Example 1-52, 2-methyl-3-((R)-1-((4-methyl-7-(methyl((R)-pyrrolidin-3-yl)amino)pyrido[3,4-d]pyridazin-1-yl)amino)ethyl)benzonitrile]
Ki [1]: 1.11 nM
IC50 (pERK in MKN1 cells): 457 nM

Cc1c(C#N)cccc1[C@@H](C)Nc1nnc(C)c2cnc(N(C)[C@H]3CCCNC3)cc12 [Example 1-53, 2-methyl-3-((R)-1-((4-methyl-7-(methyl((S)-piperidin-3-yl)amino)pyrido[3,4-d]pyridazin-1-yl)amino)ethyl)benzonitrile]
Ki [1]: 0.853 nM
IC50 (pERK in MKN1 cells): 210 nM

Cc1c(C#N)cccc1[C@@H](C)Nc1nnc(C)c2cnc(N(C)[C@@H]3CCCNC3)cc12 [Example 1-54, 2-methyl-3-((R)-1-((4-methyl-7-(methyl((R)-piperidin-3-yl)amino)pyrido[3,4-d]pyridazin-1-yl)amino)ethyl)benzonitrile]
Ki [1]: 1.2 nM
IC50 (pERK in MKN1 cells): 142 nM

Cc1c(C#N)cccc1[C@@H](C)Nc1nnc(C)c2cnc(N(C)C[C@@H]3CCCN3)cc12 [Example 1-55, 2-methyl-3-((R)-1-((4-methyl-7-(methyl(((S)-pyrrolidin-2-yl)methyl)amino)pyrido[3,4-d]pyridazin-1-yl)amino)ethyl)benzonitrile]
Ki [1]: 2.18 nM
IC50 (pERK in MKN1 cells): 290 nM

Cc1c(C#N)cccc1[C@@H](C)Nc1nnc(C)c2cnc(N(C)C[C@H]3CCCN3)cc12 [Example 1-56, 2-methyl-3-((R)-1-((4-methyl-7-(methyl(((R)-pyrrolidin-2-yl)methyl)amino)pyrido[3,4-d]pyridazin-1-yl)amino)ethyl)benzonitrile]
Ki [1]: 2.15 nM
IC50 (pERK in MKN1 cells): 246 nM

Cc1c(C#N)cccc1[C@@H](C)Nc1nnc(C)c2cnc(N(C)C[C@@H]3CCCN3C)cc12 [Example 1-57, 2-methyl-3-((R)-1-((4-methyl-7-(methyl(((S)-1-methylpyrrolidin-2-yl)methyl)amino)pyrido[3,4-d]pyridazin-1-yl)amino)ethyl)benzonitrile]
Ki [1]: 1.59 nM
IC50 (pERK in MKN1 cells): 39.2 nM

Cc1c(C#N)cccc1[C@@H](C)Nc1nnc(C)c2cnc(N(C)C[C@H]3CCCN3C)cc12 [Example 1-58, 2-methyl-3-((R)-1-((4-methyl-7-(methyl(((R)-1-methylpyrrolidin-2-yl)methyl)amino)pyrido[3,4-d]pyridazin-1-yl)amino)ethyl)benzonitrile]
Ki [1]: 1.89 nM
IC50 (pERK in MKN1 cells): 73.8 nM

COCCN1CC2(C1)CN(c1cc3c(N[C@H](C)c4cccc(C#N)c4C)nnc(C)c3cn1)C2 [Example 1-59, (R)-3-(1-((7-(6-(2-methoxyethyl)-2,6-diazaspiro[3.3]heptan-2-yl)-4-methylpyrido[3,4-d]pyridazin-1-yl)amino)ethyl)-2-methylbenzonitrile]
Ki [1]: 0.977 nM
IC50 (pERK in MKN1 cells): 37.6 nM

CCOCCN1CC2(C1)CN(c1cc3c(N[C@H](C)c4cccc(C#N)c4C)nnc(C)c3cn1)C2 [Example 1-60, (R)-3-(1-((7-(6-(2-ethoxyethyl)-2,6-diazaspiro[3.3]heptan-2-yl)-4-methylpyrido[3,4-d]pyridazin-1-yl)amino)ethyl)-2-methylbenzonitrile]
Ki [1]: 0.93 nM
IC50 (pERK in MKN1 cells): 39.9 nM

Cc1c(C#N)cccc1[C@@H](C)Nc1nnc(C)c2cnc(N3CC4(CN(CCO)C4)C3)cc12 [Example 1-61, (R)-3-(1-((7-(6-(2-hydroxyethyl)-2,6-diazaspiro[3.3]heptan-2-yl)-4-methylpyrido[3,4-d]pyridazin-1-yl)amino)ethyl)-2-methylbenzonitrile]
Ki [1]: 0.797 nM
IC50 (pERK in MKN1 cells): 1340 nM

Cc1c(C#N)cccc1[C@@H](C)Nc1nnc(C)c2cnc(N3CC4(C3)CN(C(C)C)C4)cc12 [Example 1-62, (R)-3-(1-((7-(6-isopropyl-2,6-diazaspiro[3.3]heptan-2-yl)-4-methylpyrido[3,4-d]pyridazin-1-yl)amino)ethyl)-2-methylbenzonitrile]
Ki [1]: 0.545 nM
IC50 (pERK in MKN1 cells): 37.6 nM

Cc1c(C#N)cccc1[C@@H](C)Nc1nnc(C)c2cnc(N3CC4(CC(N(C)C)C4)C3)cc12 [Example 1-63, (R)-3-(1-((7-(6-(dimethylamino)-2-azaspiro[3.3]heptan-2-yl)-4-methylpyrido[3,4-d]pyridazin-1-yl)amino)ethyl)-2-methylbenzonitrile]
Ki [1]: 0.664 nM
IC50 (pERK in MKN1 cells): 48.9 nM

Source: US20250059182A1, “SOS1 INHIBITORS” (Mirati Therapeutics, Inc., priority 2021, published 2025)
